The record followed here is US10421750B2, “Substituted morpholine derivatives having activity against pain” (ESTEVE PHARMACEUTICALS, S.A., priority 2015, dated 2019).

By Ki is commonly meant the dissociation constant of the complex between target and ligand, obtained from inhibition or displacement.

human σ1 receptor, sequence (Q99720 whole entry): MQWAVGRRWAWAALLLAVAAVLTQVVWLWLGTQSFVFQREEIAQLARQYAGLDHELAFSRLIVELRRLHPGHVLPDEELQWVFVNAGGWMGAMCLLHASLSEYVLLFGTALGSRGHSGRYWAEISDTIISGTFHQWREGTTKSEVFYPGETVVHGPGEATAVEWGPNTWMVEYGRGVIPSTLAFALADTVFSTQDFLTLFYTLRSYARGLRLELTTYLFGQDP

This test has as its target human σ1 receptor (Homo sapiens (Human), UniProt Q99720). Briefly: Human σ1 receptor radioligand assay ([3H](+)-pentazocine, transfected HEK-293 membranes). The note with it: binding to the σ1 receptor expressed as Ki, [3H](+)-pentazocine 5 nM. On the procedure:
Human σ1 Receptor Radioligand Assay
To investigate binding properties of test compounds to human σ1 receptor, transfected HEK-293 membranes and [^3H](+)-pentazocine (Perkin Elmer, NET-1056), as the radioligand, were used. The assay was carried out with 7 μg of membrane suspension, 5 nM of [^3H](+)-pentazocine in either absence or presence of either buffer or 10 μM Haloperidol for total and non-specific binding, respectively. Binding buffer contained Tris-HCl 50 mM at pH 8. Plates were incubated at 37° C. for 120 minutes. After the incubation period, the reaction mix was then transferred to MultiScreen HTS, FC plates (Millipore), filtered and plates were washed 3 times with ice-cold 10 mM Tris-HCL (pH7.4). Filters were dried and counted at approximately 40% efficiency in a MicroBeta scintillation counter (Perkin-Elmer) using EcoScint liquid scintillation cocktail
For `CCN1CC(C2CCN(Cc3ccc(C#N)cc3)CC2)OC2(CC2)C1=O` (stereo not drawn) [Example 36, 4-((4-(7-ethyl-8-oxo-4-oxa-7-azaspiro[2.5]octan-5-yl)piperidin-1-yl)methyl)benzonitrile], the Ki is no less than 500 nM.

`CC(C)N1CC(C2CCN(Cc3ccccc3)CC2)OC2(CC2)C1=O` (stereo not drawn) [Example 37, 5-(1-benzylpiperidin-4-yl)-7-isopropyl-4-oxa-7-azaspiro[2.5]octan-8-one] registered an inhibitory constant (Ki) of no less than 500 nM.

On to `CC(C)N1CC(C2CCN(Cc3ccc(F)cc3)CC2)OC2(CC2)C1=O` (stereo not drawn) [Example 38, 5-(1-(4-fluorobenzyl)piperidin-4-yl)-7-isopropyl-4-oxa-7-azaspiro[2.5]octan-8-one], for which the Ki is no less than 500 nM.

`CC(C)N1CC(C2CCN(Cc3ccc(C#N)cc3)CC2)OC2(CC2)C1=O` (stereo not drawn) [Example 39, 4-((4-(7-isopropyl-8-oxo-4-oxa-7-azaspiro[2.5]octan-5-yl)piperidin-1-yl)methyl)benzonitrile] displayed a Ki of no less than 500 nM.

On to `CCN1CC(C2CCN(CCC(C)C)CC2)OC2(CC2)C1=O` (stereo not drawn) [Example 40, 7-ethyl-5-(1-isopentylpiperidin-4-yl)-4-oxa-7-azaspiro[2.5]octan-8-one], for which the Ki was less than 500 nM.

In turn, `CCN1CC(C2CCN(Cc3ccccc3)CC2)OCC1=O` (stereo not drawn) [Example 41, 6-(1-benzylpiperidin-4-yl)-4-ethylmorpholin-3-one] showed a Ki of less than 100 nM.

As for `CCN1CC(C2CN(Cc3ccccc3)C2)OC2(CC2)C1=O` (stereo not drawn) [Example 42, 5-(1-benzylazetidin-3-yl)-7-ethyl-4-oxa-7-azaspiro[2.5]octan-8-one], the Ki was less than 500 nM.

`CCN1CC(C2CN(CCc3ccccc3)C2)OC2(CC2)C1=O` (stereo not drawn) [Example 43, 7-ethyl-5-(1-phenethylazetidin-3-yl)-4-oxa-7-azaspiro[2.5]octan-8-one] returned a Ki of less than 500 nM.

Molecule `CC(C)CCN1CCC(C2CN(c3ccccc3)C(=O)C3(CC3)O2)CC1` (stereo not drawn) [Example 44, 5-(1-isopentylpiperidin-4-yl)-7-phenyl-4-oxa-7-azaspiro[2.5]octan-8-one] returned a Ki of less than 500 nM.

As for `O=C1N(c2ccccc2)CC(C2CN(Cc3ccccc3)C2)OC12CC2` (stereo not drawn) [Example 45, 5-(1-benzylazetidin-3-yl)-7-phenyl-4-oxa-7-azaspiro[2.5]octan-8-one], the Ki was less than 100 nM.

The molecule `COc1ccc(CN2CC(C3CCN(CC(C)C)CC3)OC3(CC3)C2)cc1` (stereo not drawn) [Example 46, 5-(1-isobutylpiperidin-4-yl)-7-(4-methoxybenzyl)-4-oxa-7-azaspiro[2.5]octane] had an inhibition constant Ki of less than 500 nM.

In turn, `COc1ccc(CN2CC(C3CCN(CCC(C)C)CC3)OC3(CC3)C2)cc1` (stereo not drawn) [Example 47, 5-(1-isopentylpiperidin-4-yl)-7-(4-methoxybenzyl)-4-oxa-7-azaspiro[2.5]octane] gave a Ki of less than 100 nM.

Consider `COc1ccc(CN2CCOC(C3CCN(Cc4ccccc4)CC3)C2)cc1` (stereo not drawn) [Example 49, 2-(1-benzylpiperidin-4-yl)-4-(4-methoxybenzyl)morpholine], for which the Ki was less than 100 nM.

Consider `CCN1CCOC(C2CCN(Cc3ccccc3)CC2)C1` (stereo not drawn) [Example 50, 2-(1-benzylpiperidin-4-yl)-4-ethylmorpholine], for which the Ki is less than 100 nM.

In turn, `CC(C)CCN1CCC(C2CN(C(=O)c3ccccc3)CC3(CC3)O2)CC1` (stereo not drawn) [Example 51, (5-(1-Isopentylpiperidin-4-yl)-4-oxa-7-azaspiro[2.5]octan-7-yl)(phenyl)methanone] registered a Ki of less than 100 nM.
